# Article PMC2753600 (The FEBS journal, 2009)
# Positions count from the first letter of the chain named. Counter-ions that a name gives are not always drawn. Like-named read-outs stand apart in the source and are kept apart here.
# What was measured:
# Assay type in all cases: biochemical
# [1] = target: T1, purified human MAO A Ser209Glu mutant (Homo sapiens, UniProt P21397, S209E); assay: Competitive inhibition of purified human MAO A Ser209Glu mutant; conditions: for lower affinity for the Ser209Glu mutant than for the wild-type enzyme: purified Ser209Glu vs purified wild-type MAO A
# T1 sequence (P21397 1-527 S209E): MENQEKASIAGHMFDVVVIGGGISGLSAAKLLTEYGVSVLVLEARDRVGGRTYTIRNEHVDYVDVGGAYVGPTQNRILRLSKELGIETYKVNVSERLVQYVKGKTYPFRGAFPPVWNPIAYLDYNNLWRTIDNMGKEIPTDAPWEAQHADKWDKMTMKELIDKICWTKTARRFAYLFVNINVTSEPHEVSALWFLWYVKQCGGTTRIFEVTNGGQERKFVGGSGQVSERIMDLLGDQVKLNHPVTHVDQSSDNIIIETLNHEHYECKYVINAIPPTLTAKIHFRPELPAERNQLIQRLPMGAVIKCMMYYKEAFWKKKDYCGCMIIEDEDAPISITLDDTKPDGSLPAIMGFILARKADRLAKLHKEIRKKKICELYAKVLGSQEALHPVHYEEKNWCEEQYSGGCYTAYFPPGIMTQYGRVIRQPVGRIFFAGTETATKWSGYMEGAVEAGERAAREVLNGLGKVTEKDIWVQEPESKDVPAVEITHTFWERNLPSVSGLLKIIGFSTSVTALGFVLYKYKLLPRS
# [2] = target: T2, membrane-bound MAO A Ser209Glu mutant (Homo sapiens, UniProt P21397, S209E); assay: Steady-state kinetics of membrane-bound MAO A Ser209Glu mutant; conditions: 50 mM potassium phosphate pH 7.5
# T2 sequence (P21397 1-527 S209E): T1 sequence (P21397 1-527 S209E)
# [3] = target: T3, membrane-bound wild-type MAO A (Homo sapiens, UniProt P21397); assay: Steady-state kinetics of membrane-bound wild-type MAO A; conditions: 50 mM potassium phosphate pH 7.5
# T3 sequence (P21397 1-527): T1 sequence (P21397 1-527 S209E) with E209S
# [4] = target: T4, purified wild-type human MAO A (Homo sapiens, UniProt P21397); assay: Competitive inhibition of purified wild-type human MAO A
# T4 sequence (P21397 1-527): T1 sequence (P21397 1-527 S209E) with E209S
# [5] = target: T5, purified human MAO A Ser209Ala mutant (Homo sapiens, UniProt P21397, S209A); assay: Competitive inhibition of purified human MAO A Ser209Ala mutant
# T5 sequence (P21397 1-527 S209A): T1 sequence (P21397 1-527 S209E) with E209A
smiles,measurement,setting,value
Cc1nccc2c1[nH]c1ccccc12 [Harmane],binding to the Ser209Glu mutant compared with wild-type or Ser209Ala MAO A,[1]; purified enzymes,much more weakly
"O=C1Nc2ccccc2C1=O [Isatin, isatin]",lower affinity for the Ser209Glu mutant than for the wild-type enzyme,[1],20 fold
"CC(C)(N)Cc1ccccc1 [Phentermine, phentermine]",lower affinity for the Ser209Glu mutant than for the wild-type enzyme,[1],13 fold
"NCCc1ccccc1 [Phenylethylamine, β-phenylethylamine]",Km,[2],850 ± 70 µM
same,kcat,[2],1.068 ± 0.0238 s⁻¹
same,Km,[3],470 ± 40 µM
same,kcat,[3],0.8095 ± 0.0177 s⁻¹
"Cc1ccc2c(c1)c1c3n2CCNC3CCC1 (stereo not drawn) [Pirlindole Mesylate, pirlindole mesylate]",Ki,[4],0.92 ± 0.04 µM
same,Ki,[1],21.5 ± 1.36 µM
same,Ki,[5],0.88 ± 0.18 µM
"c1cc2c(cc1C1CCCCC1)c1c3n2CCNC3CCC1 (stereo not drawn) [Tetrindole Mesylate, tetrindole mesylate]",Ki,"[4]; competitive inhibition constant, purified wild-type human MAO A",5.27 ± 0.24 µM
"C[C@H](N)Cc1ccccc1 [d-Amphetamine, d-amphetamine]",Ki,[4],3.69 ± 0.45 µM
same,Ki,[1],609 ± 31.6 µM
same,lower affinity for the Ser209Glu mutant than for the wild-type enzyme,[1],160 fold
same,Ki,[5],4.72 ± 0.63 µM
